Reference: patent publication US9073884B2, “Anti-inflammatory and quorum sensing inhibition compounds and methods of making and using them” (The Regents of the University of California, priority 2010, dated 2015)

What was measured:
[1] = system: vibrio harveyi; assay: vibrio harveyi assay (quorum sensing inhibition); assay type: cell-based
[2] = system: Escherichia coli JB525 (E. coli MT102 harboring the gfp plasmid pJBA132); assay: Escherichia coli JB525 assay (quorum sensing inhibition); assay type: cell-based

For `O=C(/C=C/CCl)O[C@@H]1COC(=O)C1` [Honaucin A], the “inhibition of AI-1 and AI-2 mediated quorum sensing” value [1] was “good inhibition” and the “inhibition of AI-1 and AI-2 mediated quorum sensing” value [2] was “good inhibition”.
